Experiments:
Type in all cases: cell-based
[1] = Cytotoxicity test of drug (CCK-8 kit); details: African green monkey, Vero E6 cells
Protocol: (§1) The detection of the drug cytotoxicity was performed using CCK-8 kit (Beoytime). Specific steps were as follows:
(§2) 1) 1×10^4 Vero E6 (ATCC) cells were placed in a 96-well plate and incubated at 37° C. for 8 hours.
(§3) 2) The drug was diluted with DMSO to an appropriate concentration of mother liquor, and then diluted with MEM medium (purchased from Gibco, Catalog No. 10370021) containing 2% FBS (purchased from Gibco, Catalog No. 16000044) to the same concentration as that for the drug treatment. The original medium in the 96-well plate was discarded, 100 μL of drug-containing MEM medium was added to the cells, and three replicate wells were prepared for each concentration. Negative control (vehicle group, DMSO and medium were added to the cell wells, without adding drug) and blank control (DMSO and medium were added to the wells, without cells) were set up. After the drug was added, the cells were cultured at 37° C. for 48 hours.
(§4) 3) 20 μL of CCK-8 solution (Beoytime) was added to the well to be tested, mixed gently, without generating bubbles, and continuously incubated at 37° C. for 2 hours. OD450 was read on a microplate reader (purchased from Molecular Devices, Model: SpectraMax M5), and cell viability was calculated:
(§5) Cell activity (%)=(A(drug treatment group)−A(blank control))/(A(vehicle control)−A(blank control))=100%
(§6) wherein A was the reading of the microplate reader.

Vero E6 cells = assay: Cytotoxicity test of drug (CCK-8 kit); details: for Cell viability: Vero E6, 48 h
Protocol: as §1, §2, §3, §4, §5, §6

SARS-CoV-2 = assay: Reduction of viral nucleic acid load of Vero E6 cells infected by SARS-CoV-2 (qRT-PCR of supernatant); details: for Viral genome copy number (MOI = 0.05): infected supernatant, 48 h, vehicle 2215912896 ± 388319129

C=C(C)[C@@H]1CCC(C)=C[C@H]1c1c(O)cc(CCCCC)cc1O [cannabidiol, (−)-2-[(3R,4R)-p-mentha-1,8-dien-3β-yl]-5-pentylresorcinol]
CC50 at 48 h [1]: 4100 nM
Cell viability (Vero E6 cells; 0.78 μM): 73.45 ± 7.48%
Cell viability (Vero E6 cells; 1.56 μM): 74.22 ± 13.42%
Cell viability (Vero E6 cells; 3.13 μM): 58.45 ± 5.30%
Cell viability (Vero E6 cells; 6.25 μM): 60.07 ± 6.01%
Cell viability (Vero E6 cells; 12.5 μM): 50.01 ± 8.40%
Cell viability (Vero E6 cells; 25 μM): 38.39 ± 5.70%
Cell viability (Vero E6 cells; 50 μM): 22.85 ± 18.47%
Cell viability (Vero E6 cells; 100 μM): 8.87 ± 3.59%
Change of cell viability (Vero E6 cells; concentrations of 1.56 μM and 0.78 μM): did not change the cell viability
Viral genome copy number (MOI = 0.05) (SARS-CoV-2; 0.04 μM): 1853011000 ± 279114748
Viral genome copy number (MOI = 0.05) (SARS-CoV-2; 0.12 μM): 1860569042 ± 365350110
Viral genome copy number (MOI = 0.05) (SARS-CoV-2; 0.37 μM): 1224296104 ± 183149682
Viral genome copy number (MOI = 0.05) (SARS-CoV-2; 1.11 μM): 877127896 ± 122398434
Viral genome copy number (MOI = 0.05) (SARS-CoV-2; 3.33 μM): 668555500 ± 83251338
Inhibition of viral RNA load on cells (SARS-CoV-2; 48 h after infection of vero E6 cells with SARS-CoV-2 (FIG. 1)): the inhibitory activity was dose-dependent
EC50 (SARS-CoV-2; Severe acute respiratory syndrome coronavirus 2, Vero C1008, Vero E6 cells, read-out: EC50 against SARS-CoV-2): 620 nM
Inhibition of replication of the SARS-CoV-2 virus genome in the infected supernatant (SARS-CoV-2; concentrations of 10 μM, 3.3 μM, 1.1 μM and 0.37 μM): could effectively inhibit the replication

Reference: patent publication US20230263811A1, “APPLICATION OF C[…] TREATMENT OF CORONAVIRUS INFECTIONS” (ACADEMY OF MILITARY MEDICAL SCIENCES, priority 2020, published 2023)
